# Entries after “also recorded” stand apart in the source; their conditions may differ.
# Assays:
# [1] = system: subject with left-side trigeminal neuralgia and facial droop; assay: Treatment of trigeminal neuralgia and facial palsy; format: in vivo, human; conditions: progesterone 1% (1 mg) four times daily to forehead followed by 0.15 g ganciclovir (0.15% formulation) up to five times daily
# Description: A subject presented with left-side trigeminal neuralgia and left side facial droop of 10 years duration. Therapy was initiated by topically applying progesterone (1% by weight) equivalent to 1 mg four times daily to the patient's forehead. This was followed by application of 0.15 g ganciclovir (as a 0.15% by weight formulation) up to five times daily.
# [2] = system: patients with ocular discomfort resulting from dry eye; assay: Treatment of dry eye with topical progesterone applied cranially; format: in vivo, human
# Description: Twenty-seven patients diagnosed with ocular discomfort resulting from dry eye were treated with topical progesterone (0.5%-1% by weight, corresponding to approximately 1-4 mg progesterone per application) applied to the forehead either once or twice per day.
# A summary of clinical results is shown below in Table 2.
# [3] = system: dogs with mucus discharge from the eyes; assay: Treatment of dry eye in domestic animals; format: in vivo, dog
# Text: A puggle presented with mucus discharge from the eyes. […] The owner reported that the dog has this problem spring and fall, which indicates it is allergic seasonal rhinitis. The reported use took place in the fall.
# A bulldog diagnosed with Sjogren's syndrome had mucus discharge from the eyes.
# [4] = system: patients with ocular discomfort resulting from dry eye; assay: Treatment of dry eye with topical progesterone applied cranially; format: in vivo, human; remark: listed apart in the source
structure (smiles),measurement,setting,value
CC(=O)[C@H]1CC[C@H]2[C@@H]3CCC4=CC(=O)CC[C@]4(C)[C@H]3CC[C@]12C [progesterone],facial muscles contracted for 10 years,[1],relaxation of facial muscles
same,Results,"[2]; 0.5-1% on the forehead, once daily","After prolonged use, no longer requires; also recorded: Eyes moist and tearing minutes after; also recorded: application. Stopped all auxiliary eye"
same,Results,[2]; 1% progesterone ON,Equally effective. Uses nightly once a day
same,overall clinical result in twenty-seven dry eye patients,[2]; progesterone 0.5%-1% (about 1-4 mg per application) to forehead once or twice per day,Improvement was seen in all cases; also recorded: Most patients were able to discontinue previous therapy
same,time until moisture felt,"[2]; subject 4, 1% progesterone",moisture felt after 10 minutes; after weeks
same,time to effect on mucus discharge from the eyes,[3]; progesterone to the dog's forehead (puggle; bulldog with Sjogren's syndrome),≤ 24 h
same,mucus discharge from the eyes,"[3]; progesterone topical forehead treatment, daily",the problem no longer recurred; also recorded: cessation of mucus discharge
same,Results,[4]; 1% progesterone TID,"Stopped using lubricating drops. Redness,; also recorded: itching and scaly eyelids disappeared"
same,TBUT,"[4]; subject 18, 1% progesterone 2-3 times/day, increased from 2",TBUT increased from 2 to 8. Long term
